25 compounds from patent US8642597B2, “Pyrazole compounds for controlling invertebrate pests” (BASF SE, priority 2007, dated 2014) can be followed below.

By mortality is commonly meant the percentage killed. A high value points to fewer survivors.

Some results are limits rather than exact numbers.

Holding throughout (type): in vivo
Assay [1] deals with Silverleaf Whitefly (bemisia argentifolii, adult). Kind of assay: Silverleaf whitefly (bemisia argentifolii, adult), cotton cotyledon dip test. As to conditions: 72 h, 3 days after treatment, in comparison with untreated controls. The method, then:
(§1) The active compounds were formulated in 50:50 (vol:vol) acetone:water and 100 ppm Kinetica™ surfactant.
Selected cotton plants were grown to the cotyledon state (one plant per pot). The cotyledons were dipped into the test solution to provide complete coverage of the foliage and placed in a well-vented area to dry. Each pot with treated seedling was placed in a plastic cup and 10 to 12 whitefly adults (approximately 3-5 day old) were introduced. The insects were collected using an aspirator and an 0.6 cm, non-toxic Tygon® tubing (R-3603) connected to a barrier pipette tip. The tip, containing the collected insects, was then gently inserted into the soil containing the treated plant, allowing insects to crawl out of the tip to reach the foliage for feeding. The cups were covered with a reusable screened lid (150 micron mesh polyester screen PeCap from Tetko Inc). Test plants were maintained in the holding room at about 25° C. and 20-40% relative humidity for 3 days avoiding direct exposure to the fluorescent light (24 hour photoperiod) to prevent trapping of heat inside the cup. Mortality was assessed 3 days after treatment of the plants.

Assay [2] has as its system Vetch Aphid (Megoura viciae). Kind of assay: Vetch aphid (Megoura viciae), bean leaf disk microtiterplate test. As to conditions: foliar, 144 h, concentration of the test solution 2500 mg/L, 6 days. The method, then:
The active compounds were formulated in 1:3 (vol:vol) DMSO:water with different concentrations of formulated compounds.
Bean leaf disks were placed into microtiterplates filled with 0.8% agar-agar and 2.5 ppm OPUS™. The leaf disks were sprayed with 2.5 μl of the test solution and 5 to 8 adult aphids were placed into the microtiterplates which were then closed and kept at 23±1° C. and 50±5% relative humidity under fluorescent light for 6 days. Mortality was assessed on the basis of vital, reproduced aphids. Aphid mortality and fecundity was then visually assessed.

Assay [3] concerns Mediterranean Fruitfly (Ceratitis capitata). Kind of assay: Activity against Mediterranean fruitfly (Ceratitis capitata), insect diet microtiter plate test. Particulars: 120 h, eggs treated with 2500 ppm, egg and larval mortality after 5 days. The method, then: The active compounds were formulated in 1:3 (vol:vol) DMSO:water.
For evaluating control of Mediterranean fruitfly the test unit consisted of microtiter plates containing an insect diet and 50 to 80 C. capitata eggs.
Different concentrations of formulated compounds were sprayed onto the insect diet at 5 μl, using a custom built micro atomizer, at two replications. After application, microtiter plates were incubated at 28±1° C. and 80±5% relative humidity for 5 days. Egg and larval mortality was then visually assessed.

The test system of assay [4] is Cotton Aphid (aphis gossypii, Mixed Life Stages). Put plainly: Cotton aphid (aphis gossypii, mixed life stages), cotyledon dip test. Particulars: 120 h, mortality counts after 5 days, in comparison with untreated controls.
From the text: as §1
Cotton plants at the cotyledon stage (one plant per pot) were infested by placing a heavily infested leaf from the main colony on top of each cotyledon. The aphids were allowed to transfer to the host plant overnight, and the leaf used to transfer the aphids was removed. The cotyledons were dipped in the test solution and allowed to dry. After 5 days, mortality counts were made.

Assay [5] concerns Green Peach Aphid (Myzus persicae, Mixed Life Stages). Kind of assay: Green peach aphid (Myzus persicae, mixed life stages), pepper leaf dip test. As to conditions: foliar, 120 h, after 5 days, in comparison with untreated controls.
From the text: as §1
Pepper plants in the 2nd leaf-pair stage (variety ‘California Wonder’) were infested with approximately 40 laboratory-reared aphids by placing infested leaf sections on top of the test plants. The leaf sections were removed after 24 hr. The leaves of the intact plants were dipped into gradient solutions of the test compound and allowed to dry. Test plants were maintained under fluorescent light (24 hour photoperiod) at about 25° C. and 20-40% relative humidity. Aphid mortality on the treated plants, relative to mortality on check plants, was determined after 5 days.

The subject of assay [6] is Cowpea Aphid (aphis craccivora). Put plainly: Cowpea aphid (aphis craccivora), spray on potted cowpea plants. As to conditions: population reduction assessed after 24, 72 and 120 hours, in comparison with untreated controls. The method, then:
The active compounds were formulated in 50:50 (vol:vol) acetone:water. The test solution was prepared at the day of use.
Potted cowpea plants colonized with 100-150 aphids of various stages were sprayed after the pest population had been recorded. Population reduction was assessed after 24, 72, and 120 hours.

The next assay relates to Bean Aphid (Aphis fabae). Kind of assay: Bean aphid (Aphis fabae), nasturtium plant dip test. Particulars: 72 h, after 3 days, in comparison with untreated controls.
From the text: as §1
Nasturtium plants grown in Metro mix in the 1st leaf-pair stage (variety ‘Mixed Jewel’) were infested with approximately 2-30 laboratory-reared aphids by placing infested cut plants on top of the test plants. The cut plants were removed after 24 hr. Each plant was dipped into the test solution to provide complete coverage of the foliage, stem, protruding seed surface and surrounding cube surface and allowed to dry in the fume hood. The treated plants were kept at about 25° C. with continuous fluorescent light. Aphid mortality is determined after 3 days.

In assay [7] the test system is Boll Weevil (Anthonomus grandis). Kind of assay: Boll weevil (Anthonomus grandis), insect diet microtiter plate test. Particulars: 120 h, concentration of the test solution 2500 mg/L, egg and larval mortality after 5 days. The method, then: The compounds were formulated in 75:25 (vol:vol) water:DMSO.
For evaluating control of boll weevil (Anthonomus grandis) the test unit consisted of 24-well-microtiter plates containing an insect diet and 20-30 A. grandis eggs. Different concentrations of formulated compounds were sprayed onto the insect diet at 20 μl, using a custom built micro atomizer, at two replications. After application, the microtiter plates were incubated at 23±1° C. and 50±5% relative humidity for 5 days. Egg and larval mortality was then visually assessed.

The test system of assay [8] is Southern Armyworm (spodoptera eridania, 2nd instar larvae). Put plainly: Southern armyworm (spodoptera eridania, 2nd instar larvae), lima bean leaf dip test. Particulars: foliar, 96 h, at 4 days, in comparison with untreated controls. The method, then:
as §1
A pair of first true leaves of Sieva lima bean was dipped in the test solution and allowed to dry. The leaf was then placed in a plastic perforated zip enclosure bag and ten 2nd instar larvae were added. At 4 days, observations were made of mortality and reduced feeding.

On to `Cn1cc(C(=O)Nc2cccnc2)c(C(F)(F)F)n1` [Compound 100], for which, in assay [1], the mortality at 300 ppm was no less than 50%. The same compound returned a mortality at 2500 µg/mL in assay [2] of no less than 80%. In addition, the mortality at 2500 ppm in [3] came to 50%.
`Cc1nn(C(F)F)cc1C(=O)N(C)c1cccnc1` [Compound 229]: the mortality at 300 ppm in assay [4] was no less than 75%; in [5], no less than 50%; in [1], no less than 50%.
As to `CCc1c(C(=O)Nc2cccnc2)cnn1CC` [Compound 184], the figures for the mortality at 300 ppm in assay [4], in assay [5] and in [6] were no less than 75%, no less than 50% and no less than 75%, respectively. Also, the mortality at 2500 µg/mL in assay [2] is no less than 80%. The compound also displayed a mortality at 2500 ppm in assay [3] of 50%.
Turning to `Cn1cc(C(=O)Nc2cccnc2)c(C(F)(F)F)n1` [Compound 13, 1-methyl-3-trifluoromethyl-1H-pyrazole-4-carboxylic acid pyridin-3-ylamide], the mortality at 10 ppm in the assay with Bean Aphid (Aphis fabae) was no less than 90%. This compound registered a mortality at 2500 µg/mL in [7] of no less than 50%.
In [8], `O=C(Nc1cccnc1)c1cn[nH]c1-c1cccs1` [Compound 77] showed a mortality at 300 ppm of no less than 50%. In addition, the mortality at 2500 ppm in assay [3] turned out to be 50%.
`Cn1ncc(C(=O)Nc2cccnc2)c1C1CC1` [Compound 89]: the mortality at 300 ppm in [4] was no less than 75%; in [5] it was no less than 50%; in assay [6] it was no less than 75%; in [1] it was no less than 50%. The compound further registered a mortality at 2500 µg/mL in [2] of no less than 80%.
For `O=C(Nc1cccnc1)c1cnn(Cc2ccccc2)c1` [Compound 82], the mortality at 300 ppm is no less than 75% in assay [4], no less than 50% in [5], no less than 75% in assay [6] and no less than 50% in [1].
With `CCn1cc(C(=O)Nc2cccnc2)cn1` [Compound 102], the mortality at 300 ppm in assay [4] is no less than 75%; in assay [5] it was no less than 50%; in assay [6] it was no less than 75%; in [1] it was no less than 50%. Besides, the mortality at 2500 µg/mL in [2] is no less than 80%; in assay [7] it was 100%.
For the compound `CCn1cc(C(=O)Nc2cccnc2)c(C(F)F)n1` [Compound 181], the mortality at 300 ppm in [4] was no less than 75%; in assay [5], no less than 50%; in assay [6], no less than 75%. The mortality at 2500 µg/mL in assay [2] was no less than 80%. For the same compound, the mortality at 2500 ppm in assay [3] stood at 50%.
As to `Cn1ncc(C(=O)Nc2cccnc2)c1C(F)(F)F` [Compound 109], the mortality at 300 ppm in assay [4] was no less than 75%; in assay [5], no less than 50%; in assay [6] it was no less than 75%; in assay [1], no less than 50%. For the same compound, the mortality at 2500 µg/mL in [2] was no less than 80%; in assay [7] it was 100%.
Turning to `CCn1ncc(C(=O)N(C)c2cccnc2)c1C` [Compound 180], the mortality at 300 ppm in [4] is no less than 75%; in assay [5], no less than 50%; in [6], no less than 75%; in assay [1], no less than 50%.
Consider `CN(C(=O)c1cn(CC(F)F)nc1C(F)(F)F)c1cccnc1` [Compound 234], for which the values for the mortality at 2500 µg/mL in assay [2] and in assay [7] were no less than 80% and 100%, respectively. Besides, the mortality at 2500 ppm in assay [3] amounted to 50%.
In the case of `CCCN(C(=O)c1cn(C)nc1C(F)(F)F)c1cccnc1` [Compound 129], the mortality at 10 ppm with Bean Aphid (Aphis fabae) was no less than 90%.
As to `Cn1ncc(C(=O)Nc2cccnc2)c1Cl` [Compound 83], the mortality at 300 ppm is no less than 75% in assay [4], no less than 50% in [5], no less than 75% in [6] and no less than 50% in assay [1].
Regarding `CC(=O)N(C(=O)c1cn(C)nc1C(F)(F)F)c1cccnc1` [Compound 134], the mortality at 300 ppm in [4] is no less than 75%; in [5], no less than 50%; in [6] it was no less than 75%; in assay [1], no less than 50%. This compound also gave a mortality at 2500 µg/mL in assay [2] of no less than 80%.
`CCn1cc(C(=O)N(C)c2cccnc2)c(C(F)(F)F)n1` [Compound 183]: the mortality at 300 ppm in assay [4] was no less than 75%; in assay [5], no less than 50%; in [6], no less than 75%. Further, the mortality at 2500 µg/mL in assay [2] was no less than 80%. Further, the mortality at 2500 ppm in [3] is 50%.
`Cc1c(C(=O)Nc2cccnc2)cnn1-c1ccc([N+](=O)[O-])cc1` [Compound 231] yielded a mortality at 2500 µg/mL in [2] of no less than 80%. For the same compound, the mortality at 2500 ppm in assay [3] was determined as 50%.
For `CCN(C(=O)c1cn(C)nc1C(F)(F)F)c1cccnc1` [Compound 127], the mortality at 300 ppm in assay [4] is no less than 75%; in [5], no less than 50%. Further, the mortality at 10 ppm in the assay with Bean Aphid (Aphis fabae) is no less than 90%. Also, the mortality at 2500 µg/mL in [2] is no less than 80%.
For the compound `Cc1nn(-c2ccccc2)cc1C(=O)Nc1cccnc1` [Compound 84], the mortality at 300 ppm in assay [1] is no less than 50%. In addition, the mortality at 2500 ppm in [3] is 50%.
Take `Cc1c(C(=O)Nc2cccnc2)cnn1-c1ccc(Cl)cc1` [Compound 142]: the mortality at 300 ppm was no less than 75% in [4], no less than 50% in assay [5] and no less than 75% in assay [6]. The mortality at 10 ppm in the assay with Bean Aphid (Aphis fabae) was no less than 90%. Further, the mortality at 2500 µg/mL in [2] was no less than 80%.
Regarding `O=C(Nc1cccnc1)c1cnn(-c2ccccc2)c1Cl` [Compound 123], the mortality at 300 ppm in [4] was no less than 75%; in assay [5], no less than 50%; in [6], no less than 75%. For the same compound, the mortality at 10 ppm in the assay on Bean Aphid (Aphis fabae) was no less than 90%. In addition, in assay [2], the mortality at 2500 µg/mL was no less than 80%.
As to `O=C(Nc1cccnc1)c1cn(CC(F)F)nc1C(F)(F)F` [Compound 232], the mortality at 2500 µg/mL in assay [2] was no less than 80%. Further, in assay [3], the mortality at 2500 ppm came to 50%.
As for `CCCc1c(C(=O)Nc2cccnc2)cnn1-c1ccc(Cl)cc1` [Compound 79], the mortality at 300 ppm in assay [5] was no less than 50%; in assay [6], no less than 75%; in [8], no less than 50%. Also, the mortality at 2500 ppm in assay [3] came out at 50%.
`O=C(Nc1cccnc1)c1cn(-c2ccc(Cl)cc2)nc1C(F)(F)F` [Compound 73]: the mortality at 300 ppm was no less than 75% in assay [4], no less than 50% in assay [5], no less than 75% in assay [6] and no less than 50% in assay [1]. The mortality at 2500 µg/mL in assay [2] is no less than 80%.
With `O=C(Nc1cccnc1)c1cnn(-c2cccc(Cl)c2)c1C(F)F` [Compound 157], the mortality at 300 ppm in assay [4] was no less than 75%; in [5], no less than 50%; in assay [6], no less than 75%; in assay [8] it was no less than 50%. In addition, the figures for the mortality at 2500 µg/mL in assay [2] and in [7] were no less than 80% and 100%, respectively.
